Laboratory results: patent US4897426A, “Method for blocking calcium channels” (New York University, priority 1989, dated 1990)
Read-outs that look alike come from different tables or passages of the source.

Legend:
[1] = test system: high-threshold calcium conductance (HTCC); details: 10^-4 M butanol; sodium channel blocked by tetrodotoxin
bovine platelets = details: cited from earlier work
[2] = test system: low-threshold calcium channels (LTCC); assay: Intracellular recording of low-threshold calcium rebound spike in inferior olivary cells of brain slices (LTCC blockage); assay type: cell-based, guinea pig
[3] = test system: synaptosomes isolated from rat brains; details: ethanol 2.5×10^-2 -1.5×10^-1 M; cited from earlier work
[4] = read-out: Blood level; one or two drinks of an alcohol-containing beverage; cited from earlier work
[5] = in vivo; cited from earlier work
[6] = test system: rat brain synaptic membrane vesicles; details: 10^-1 M; cited from earlier work
tremor [7] = details: cited from earlier work
tremor [8] = assay: Harmaline-induced tremor, electromyogram of left platysma muscle; assay type: in vivo, Sprague-Dawley rats
Experimental: In order to analyze the effects of LTCC-blocking agents in vivo, octanol was administered to rats. Alcohols were diluted with physiological saline and sonicated to ensure mixing to create a concentration of alcohol around the neurons equivalent to 10^-6 M (at most). The alcohol was administered intraperitoneally at a concentration of to 10 mM. […] (Harmaline is available from Sigma Chemical Co., St. Louis, M.) The thus-induced tremor has a periodicity similar to physiological or enhanced physiological tremor.
Therefore, study of I.O. cells of mammals in which tremor has been induced with harmaline provides an excellent in vivo model for studying tremor response in mammals.
Tremor can be measured by electromyogram conducted according to Buchthal, F., et al., Acta Physio. Scand. 39: 83-104, 1957, incorporated by reference.
The electric activity in the left platysma muscle of 278 to 300 g Sprague-Dawley rats (from Taconic Farms, Germantown, N.Y.) was recorded differentially using two teflon-coated stranded silver wires (2 mm of wire exposed) placed in the belly of the muscle. The electromyogram (emg) was recorded throughout the experiment and the data were analyzed at the following times: (1) before administration of any drugs; (2) after intraperitoneal injection of 15 mg/kg harmaline; and (3) after subsequent intraperitoneal injection of 2 cc of 10 mM 1-octanol (99% octanol sonicated in physiological saline) given to create a concentration of 9.3 micrograms/g of rat body weight or 7×10^-5 M in the vicinity of the neuronal cells (if all the alcohol was to be absorbed, and none metabolized). The emg was smoothed and differentiated (to further decrease the background noise) using a Nicolet Explorer Model 4060 digital oscilloscope (from Nicolet Instrument Corp., Madison, Wis.). This instrument was also used to obtain autocorrelograms of 800-ms sections of the emg's. Autocorrelograms were obtained by superimposing 800-ms sections of the emg signals. The emerging patterns (if any) can be used to determine frequency and amplitude characteristics of the emg that may not be readily discernible from the naked emg signal.

LTCC = assay: Voltage clamp study of LTCC in I.O. neurons; assay type: cell-based, guinea pig; details: octanol 10^-6 M; depolarization steps of 5 mV from holding potential -80 mV
Source text: Adult Hartley guinea pigs (400-600 g) from Camm Research Institute, Wayne, N.J. were decapitated, after ether anesthesia, using a small animal guillotine. Immediately thereafter, two longitudinal sections were made along the lateral edge of the squamous portion of the occipital bone. The resulting bone slab was cut transversely, and pulled caudalward to expose the cerebellum and brain stem. […] It was then transected longitudinally in a parasagittal plane and fixed to a Vibratome Model G plate (available from Ted Pella, Inc., Tustin, Calif.) in order to obtain thin longitudinal sections. From a single brain stem, six 300-micron slices could be obtained. Following sectioning, the slices were incubated in Ringer's solution for approximately one hour. The bathing medium was kept at room temperature and a mixture of 95% O2 and 5% CO2 was bubbled into the bath during this period. Brain stem slices were removed from the incubation bath after one hour but could be kept in good condition in the bath for periods of time up to 24 hours. […]
The results presented in this Example were recorded in I.O. neurons from different parts of the nucleus. […] In these experiments, the ionic current across the membrane was measured after a voltage clamp pulse was applied across the membrane. […]

squid axons = details: octanol 10^-4 M; cited from earlier work
[9] = Solubility in aqueous media; assay type: physicochemical; details: relative to most effective concentration for blocking LTCC
[10] = complete blockage of LTCC, for hexanol through decanol nominal, 10^-6 M at most (not fully soluble)
[11] = harmaline 15 mg/kg i.p., no alcohol
[12] = 2 cc of 10 mM 1-octanol i.p. after harmaline 15 mg/kg i.p.

Compound: CCCCO [butanol]
- Effect on the HTCC [1]: absence of any effect on the HTCC
- Inhibition of calcium mobilization (bovine platelets; 5×10^-2 M): inhibitors of calcium mobilization
- Inhibition of the LTCC or rebound spike [2]: inhibition of the LTCC or rebound spike
- Preferred highest molar concentration / operative range for substantial and total blockage of LTCC: To About [2]: ~10^-6

Compound: CCCCCCCCCCO [decanol]
- Preferred highest molar concentration / operative range for substantial and total blockage of LTCC: From About [2, 10]: ~10^-6 M

Compound: CCO [ethanol]
- Inhibition of voltage-dependent calcium uptake [3]: inhibited voltage-dependent calcium uptake
- concentration [4]: ~10000 µM
- Intoxicating and addictive properties [5]: well-known
- Preferred highest molar concentration / operative range for substantial and total blockage of LTCC: From About [2]: ~10^-3
- Preferred highest molar concentration / operative range for substantial and total blockage of LTCC: To About [2]: ~10^-4
- Inhibition of calcium influxes [6]: inhibited calcium influxes

Compound: COc1ccc2c3c([nH]c2c1)C(C)=NCC3 [harmaline, reference compound]
- Induction of tremor in mammals (known) (tremor [7]): known to induce tremor in mammals
- Tremor induction (tremor [8]; harmaline 15 mg/kg i.p.): periods of generalized tremor
- Degree of autocorrelation of emg (tremor [8]; [11]): high degree of autocorrelation
- Dominant frequency of tremor (tremor [8]; [11]): 7.5 Hz

Compound: CCCCCCCO [heptanol]
- Preferred highest molar concentration / operative range for substantial and total blockage of LTCC: From About [2, 10]: ~10^-6 M

Compound: CCCCCCO [hexanol]
- Inhibition of calcium mobilization (bovine platelets; 5×10^-3 (unit not given)): inhibitors of calcium mobilization
- Preferred highest molar concentration / operative range for substantial and total blockage of LTCC: From About [2, 10]: ~10^-6 M

Compound: CCCCCCCCCO [nonanol]
- Preferred highest molar concentration / operative range for substantial and total blockage of LTCC: From About [2, 10]: ~10^-6 M

Compound: CCCCCCCCO [octanol, 1-octanol]
- Blockage of low-threshold calcium ionic current (LTCC): completely blocked the ionic conductance
- Observed intracellular calcium concentration (squid axons): apparent increase in the observed intracellular calcium concentration
- Solubility in aqueous media [9]: corresponds closely to the most effective concentration for blocking the LTCC
- Blockage of calcium-dependent rebound potentials (LTCC) ([2]; 10^-6 M octanol in bath, sodium spike blocked with 10^-6 M tetrodotoxin): complete blockage of the calcium-dependent rebound potentials
- Blockage of the rebound calcium spike following membrane hyperpolarization ([2]; 10^-6 M octanol, hyperpolarizing square current pulse, 10^-6 M tetrodotoxin): blocked
- Preferred highest molar concentration / operative range for substantial and total blockage of LTCC: From About [2, 10]: ~10^-6 M
- Baseline muscle activity (tremor [8]; [12]): reduced below control levels
- Dominant frequency of emg (tremor [8]; [12]): 10 Hz
- Tremor after harmaline and alcohol (tremor [8]; [12]): the tremor stopped

Compound: CCCCCO [pentanol]
- Preferred highest molar concentration / operative range for substantial and total blockage of LTCC: From About [2, 10]: ~10^-6 M
